Test results as given in PubChem BioAssay AID248 (DTP/NCI, 2004).
Several values for one entry are separate records, joined by “and”; a condition that tells them apart may be missing. Equal values may be shown once. Toxic doses and inconclusive results are not listed.

System: L1210 leukemia ip in BDF1 mice, survival T/C
Experiment: NCI In Vivo Anticancer Drug Screen. Data for tumor model L1210 Leukemia (intraperitoneal) in B6D2F1 (BDF1) mice
Conditions: endpoint: mean survival time, higher = longer survival
Outline: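 Each compound was tested against a transplantable tumor grown in mice. The endpoint was survival, with treated animals benchmarked against vehicle controls as a simple ratio.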

COc1ccc2[nH]c3c(C)c4ccncc4c(C)c3c2c1
T/C (dose: 2.5 mg/kg/injection, schedule: Q01DX009 (ip), vehicle: Klucel (hydroxypropylcellulose) (HPC)): 93 % of control | T/C (dose: 3.12 mg/kg/injection, schedule: Q01DX009 (ip), vehicle: citric acid): 113 % of control and 124 % of control | T/C (dose: 3.12 mg/kg/injection, schedule: Q01DX009 (ip), vehicle: clinical formulation): 109 % of control and 121 % of control | T/C (dose: 3.12 mg/kg/injection, schedule: Q04DX003 (ip), vehicle: citric acid): 106 % of control | T/C (dose: 3.12 mg/kg/injection, schedule: Q04DX003 (ip), vehicle: clinical formulation): 104 % of control | T/C (dose: 5.0 mg/kg/injection, schedule: Q01DX009 (ip), vehicle: Klucel (hydroxypropylcellulose) (HPC)): 106 % of control | T/C (dose: 6.0 mg/kg/injection, schedule: Q01DX Z (ip), vehicle: saline): 112 % of control | T/C (dose: 6.25 mg/kg/injection, schedule: Q01DX009 (ip), vehicle: citric acid): 122 % of control | T/C (dose: 6.25 mg/kg/injection, schedule: Q04DX003 (ip), vehicle: citric acid): 109 % of control and 112 % of control | T/C (dose: 6.25 mg/kg/injection, schedule: Q04DX003 (ip), vehicle: clinical formulation): 106 % of control and 108 % of control | T/C (dose: 9.37 mg/kg/injection, schedule: Q01DX001 (ip), vehicle: other): 102 % of control | T/C (dose: 9.37 mg/kg/injection, schedule: Q01DX001 (sc), vehicle: other): 98 % of control | T/C (dose: 9.37 mg/kg/injection, schedule: Q04DX003 (ip), vehicle: other): 103 % of control | T/C (dose: 9.38 mg/kg/injection, schedule: Q04DX003 (ip), vehicle: clinical formulation): 104 % of control | T/C (dose: 9.38 mg/kg/injection, schedule: Q04DX003 (ip), vehicle: lactic acid): 121 % of control | T/C (dose: 10.0 mg/kg/injection, schedule: Q01DX009 (ip), vehicle: Klucel (hydroxypropylcellulose) (HPC)): 109 % of control | T/C (dose: 12.0 mg/kg/injection, schedule: Q01DX001 (ip), vehicle: saline): 106 % of control | T/C (dose: 12.0 mg/kg/injection, schedule: Q01DX Z (ip), vehicle: saline): 109 % of control and 123 % of control | T/C (dose: 12.0 mg/kg/injection, schedule: Q01DX Z (oral), vehicle: saline): 116 % of control | T/C (dose: 12.5 mg/kg/injection, schedule: Q01DX009 (ip), vehicle: citric acid): 150 % of control | T/C (dose: 12.5 mg/kg/injection, schedule: Q04DX003 (ip), vehicle: citric acid): 116 % of control | T/C (dose: 12.5 mg/kg/injection, schedule: Q04DX003 (ip), vehicle: clinical formulation): 117 % of control and 120 % of control | T/C (dose: 18.75 mg/kg/injection, schedule: Q01DX001 (ip), vehicle: other): 108 % of control and 109 % of control | T/C (dose: 18.75 mg/kg/injection, schedule: Q01DX001 (sc), vehicle: other): 104 % of control | T/C (dose: 18.75 mg/kg/injection, schedule: Q04DX003 (ip), vehicle: other): 118 % of control | T/C (dose: 20.0 mg/kg/injection, schedule: Q01DX009 (ip), vehicle: Klucel (hydroxypropylcellulose) (HPC)): 119 % of control | T/C (dose: 25.0 mg/kg/injection, schedule: Q01DX001 (ip), vehicle: saline): 104 % of control | T/C (dose: 25.0 mg/kg/injection, schedule: Q01DX009 (ip), vehicle: citric acid): 93 % of control | T/C (dose: 25.0 mg/kg/injection, schedule: Q01DX009 (ip), vehicle: clinical formulation): 101 % of control | T/C (dose: 37.5 mg/kg/injection, schedule: Q01DX001 (ip), vehicle: other): 114 % of control and 120 % of control | T/C (dose: 37.5 mg/kg/injection, schedule: Q01DX001 (ip), vehicle: saline): 104 % of control | T/C (dose: 37.5 mg/kg/injection, schedule: Q01DX001 (oral), vehicle: other): 118 % of control | T/C (dose: 37.5 mg/kg/injection, schedule: Q01DX001 (sc), vehicle: other): 113 % of control | T/C (dose: 37.5 mg/kg/injection, schedule: Q01DX001 (sc), vehicle: saline): 104 % of control | T/C (dose: 37.5 mg/kg/injection, schedule: Q04DX003 (oral), vehicle: other): 113 % of control | T/C (dose: 50.0 mg/kg/injection, schedule: Q01DX001 (ip), vehicle: other): 105 % of control | T/C (dose: 50.0 mg/kg/injection, schedule: Q01DX001 (ip), vehicle: saline): 98 % of control | T/C (dose: 50.0 mg/kg/injection, schedule: Q04DX003 (ip), vehicle: clinical formulation): 123 % of control | T/C (dose: 75.0 mg/kg/injection, schedule: Q01DX001 (ip), vehicle: saline): 111 % of control and 113 % of control and 115 % of control | T/C (dose: 75.0 mg/kg/injection, schedule: Q01DX001 (oral), vehicle: other): 124 % of control | T/C (dose: 75.0 mg/kg/injection, schedule: Q01DX001 (oral), vehicle: saline): 113 % of control | T/C (dose: 75.0 mg/kg/injection, schedule: Q01DX001 (sc), vehicle: other): 112 % of control | T/C (dose: 75.0 mg/kg/injection, schedule: Q01DX001 (sc), vehicle: saline): 100 % of control | T/C (dose: 100.0 mg/kg/injection, schedule: Q01DX Z (ip), vehicle: carboxymethylcellulose (CMC)): 96 % of control
